In US10766869B2, “Triazoles for the treatment of demyelinating dieases” (Vertex Pharmaceuticals Incorporated, priority 2015, dated 2020):
Where two headings read alike, the source gives them in different places.

Tested on: primary rat mixed cortical cells
Assay: In vitro myelination assay (MBP positive myelin strands, fold myelin pixels above background)
Assay type: cell-based
Conditions: Rattus norvegicus; for fold induction at 1 µM: 1.0 μM compound; for fold induction at 10 µM: 10.0 μM compound
How it was run: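 Fourteen-day treatment of primary P1 rat mixed cortical cultures, re-dosed at days 6 and 10, at 1.0 μM and 10.0 μM. MBP immunofluorescence was imaged at 10× and myelin strands quantified by software, normalised to untreated wells as fold above background.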

[1] = relative to baseline of no added compound, read-out: Fold myelin pixels above background, 1.0 μM
[2] = relative to baseline of no added compound, read-out: Fold myelin pixels above background, 10.0 μM
[3] = relative to baseline of no added compound, read-out: Fold myelin pixels above background
[4] = read-out: Fold myelin pixels above background relative to baseline of no added compound

| Structure (SMILES) | fold induction at 1 µM [3] | fold induction at 10 µM [3] | fold induction at 1 µM [4] | fold induction at 10 µM [4] | further results |
| --- | --- | --- | --- | --- | --- |
| Cc1cc(Nc2ncn(-c3cc(F)cc(F)c3)n2)cc(N2CCOCC2)c1 [Compound 374, 1-(3,5-difluorophenyl)-N-(3-methyl-5-morpholino-phenyl)-1,2,4-triazol-3-amine] | – | – | – | – | fold induction at 1 µM [1]: 100 to 1000; fold induction at 10 µM [2]: 100 to 1000 |
| N#Cc1cc(Nc2ncn(-c3ccc(F)c(F)c3)n2)cc(N2CCOCC2)c1 [Compound 668, 3-[[1-(3,4-difluorophenyl)-1,2,4-triazol-3-yl]amino]-5-morpholino-benzonitrile] | 1 to 10 | 1 to 10 | – | – | – |
| Cc1cc(Nc2ncn(-c3cccc(F)c3)n2)cc(C2CCN(C3COC3)C2)c1 (centres unmarked) [Compound 382, 1-(3-fluorophenyl)-N-[3-methyl-5-[1-(oxetan-3-yl)pyrrolidin-3-yl]phenyl]-1,2,4-triazol-3-amine] | – | – | – | – | fold induction at 1 µM [1]: 1000 to 10000; fold induction at 10 µM [2]: 1 to 10 |
| Cc1cc(Nc2ncn(-c3cc(F)cc(F)c3)n2)c(F)c(OC2CCOC2)c1 (centres unmarked) [Compound 856, 1-(3,5-difluorophenyl)-N-(2-fluoro-5-methyl-3-tetrahydrofuran-3-yloxy-phenyl)-1,2,4-triazol-3-amine] | – | – | 10 to 100 | ≤ 1 | – |
| Cc1cc(Nc2ncn(-c3cncc(F)c3)n2)cc(N2CCOCC2)c1 [Compound 427, 1-(5-fluoro-3-pyridyl)-N-(3-methyl-5-morpholino-phenyl)-1,2,4-triazol-3-amine] | 100 to 1000 | 100 to 1000 | – | – | – |
| Fc1cccc(-n2cnc(Nc3cc(C4CC4)cc(N4CCN(C5COC5)CC4)c3)n2)c1 [Compound 462, N-[3-cyclopropyl-5-[4-(oxetan-3-yl)piperazin-1-yl]phenyl]-1-(3-fluorophenyl)-1,2,4-triazol-3-amine] | 100 to 1000 | ≤ 1 | – | – | – |
| Cc1cc(Nc2ncn(-c3cc(F)cc(F)c3)n2)nc(N2CC(C(C)(C)O)C2)c1 [Compound 572, 2-[1-[6-[[1-(3,5-difluorophenyl)-1,2,4-triazol-3-yl]amino]-4-methyl-2-pyridyl]azetidin-3-yl]propan-2-ol] | ≤ 1 | 1 to 10 | – | – | – |
| Cc1cc(Nc2ncn(-c3cc(F)cc(F)c3)n2)cc(N2CCC(N3CCOC(C)C3)CC2)c1 (centres unmarked) [Compound 1023, 1-(3,5-difluorophenyl)-N-[3-methyl-5-[4-(2-methylmorpholin-4-yl)-1-piperidyl]phenyl]-1,2,4-triazol-3-amine] | – | – | 1 to 10 | 10 to 100 | – |
| CCN(CC)CC1CN(c2cc(C)cc(Nc3ncn(-c4cc(F)cc(F)c4)n3)c2)CCO1 (centres unmarked) [Compound 1017, N-[3-[2-(diethylaminomethyl)morpholin-4-yl]-5-methyl-phenyl]-1-(3,5-difluorophenyl)-1,2,4-triazol-3-amine] | – | – | 10 to 100 | ≤ 1 | – |
| CC(C)(C)c1cc(Nc2ncn(-c3cccc(F)c3)n2)cc(N2CCN(C3COC3)CC2)c1 [Compound 97, N-[3-tert-butyl-5-[4-(oxetan-3-yl)piperazin-1-yl]phenyl]-1-(3-fluorophenyl)-1,2,4-triazol-3-amine] | – | – | – | – | fold induction at 1 µM [1]: 100 to 1000; fold induction at 10 µM [2]: 100 to 1000 |
| Cc1cc(Nc2ncn(-c3cc(F)cc(F)c3)n2)cc(N2CCN(C3CCN(C)CC3)C(C)C2)c1 (centres unmarked) [Compound 925, 1-(3,5-difluorophenyl)-N-[3-methyl-5-[3-methyl-4-(1-methyl-4-piperidyl)piperazin-1-yl]phenyl]-1,2,4-triazol-3-amine] | – | – | 1 to 10 | ≤ 1 | – |
| Cc1cc(Nc2ncn(-c3cc(F)cc(F)c3)n2)cc(N2CCN(CC(C)(C)O)C(C)C2)c1 (centres unmarked) [Compound 941, 1-[4-[3-[[1-(3,5-difluorophenyl)-1,2,4-triazol-3-yl]amino]-5-methyl-phenyl]-2-methyl-piperazin-1-yl]-2-methyl-propan-2-ol] | – | – | 1 to 10 | 1 to 10 | – |
| Fc1cc(F)cc(-n2cnc(Nc3cc(Cl)cc(N4CCOCC4)c3)n2)c1 [Compound 426, N-(3-chloro-5-morpholino-phenyl)-1-(3,5-difluorophenyl)-1,2,4-triazol-3-amine] | 1000 to 10000 | 1000 to 10000 | – | – | – |
